Reference: paper PMC11823594, “Durlobactam in combination with β-lactams to combat Mycobacterium abscessus” (Antimicrobial Agents and Chemotherapy, 2024)

Tests used:
[1] = target: LDT5 (Mycobacterium abscessus, UniProt B1MM58); test: Mass spectrometry of covalent adduct formation; format: binding; conditions: protein:drug 1:20, 2 h; mass accuracy ±5 Da; (−) = no change
Protocol: (§1) Truncated sequences of LDT1-5, DDC, PBP B, and PBP-lipo (Δ1–41) were generated by Celtek Biosciences and cloned into the pET28(a) + vector with a tobacco etch virus (TEV) protease cleavage site before the start codon. Clones were transformed into Escherichia coli BL21 (DE3) and grown to an OD600 of 0.6–0.8. […] Cell pellets were collected and stored at −20°C overnight, then resuspended in a buffer containing 50 mM Tris (pH 8.0), 400 mM sodium chloride, and 1 mM Tris (2-carboxyethyl) phosphine hydrochloride (TCEP), followed by sonication and centrifugation. The supernatant was purified using a His Prep FF 16/10 column (GE Healthcare) and eluted with 500 mM imidazole. Eluted protein was dialyzed overnight at 4°C in a buffer with 50 mM Tris (pH 8.0), 150 mM sodium chloride, and 0.5 mM TCEP in the presence of His-tagged TEV protease. To remove the His tag, the mixture was passed over the His Prep FF 16/10 column again.
(§2) The purified proteins listed above were incubated at room temperature with β-lactams or BLIs at a molar ratio of 1:20 for 2 h. The reactions were then quenched with acetonitrile and diluted to 1 mL with 0.1% formic acid in water. Samples were analyzed using a quadrupole time-of-flight (Q-TOF) Waters Synapt-G2-Si electrospray ionization mass spectrometer (ESI-MS) and a Waters Acquity H class ultra-performance liquid chromatography (UPLC) system, equipped with a BEH C18 1.7 µm column (2.1 × 50 mm). The MS was tuned with the following settings: capillary voltage set at 3 kV, sampling cone at 35 V, source offset at 35, source temperature of 100°C, desolvation temperature of 500°C, cone gas flow rate at 100 L/h, desolvation gas flow rate at 800 L/h, and nebulizer set at 6.0. The mobile phases consisted of 0.1% formic acid in water and 0.1% formic acid in 100% acetonitrile, with gradient elution from 10% to 90% of […] over 11 min. The system’s mass accuracy was ±5 Da.

[2] = target: T1, LDT1 (Mycobacterium abscessus, UniProt B1MDC1); test: Mass spectrometry of covalent adduct formation; format: binding; conditions: protein:drug 1:20, 2 h; mass accuracy ±5 Da; (−) = no change
T1 sequence (B1MDC1 entry or part of it): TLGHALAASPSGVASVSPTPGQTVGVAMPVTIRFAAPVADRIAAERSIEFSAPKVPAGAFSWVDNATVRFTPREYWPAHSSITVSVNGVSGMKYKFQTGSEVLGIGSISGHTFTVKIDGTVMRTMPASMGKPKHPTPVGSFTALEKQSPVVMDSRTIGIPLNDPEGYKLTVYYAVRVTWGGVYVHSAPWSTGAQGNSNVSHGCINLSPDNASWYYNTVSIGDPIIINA
Protocol: as §1, §2

[3] = target: PBP B (Mycobacterium abscessus, UniProt B1MP31); test: Differential scanning fluorimetry thermal shift assay; format: binding; conditions: 2 h; read-out: ΔTm PBPB (Tm = 31.6°C)
Chain of PBP B (B1MP31 entry or part of it): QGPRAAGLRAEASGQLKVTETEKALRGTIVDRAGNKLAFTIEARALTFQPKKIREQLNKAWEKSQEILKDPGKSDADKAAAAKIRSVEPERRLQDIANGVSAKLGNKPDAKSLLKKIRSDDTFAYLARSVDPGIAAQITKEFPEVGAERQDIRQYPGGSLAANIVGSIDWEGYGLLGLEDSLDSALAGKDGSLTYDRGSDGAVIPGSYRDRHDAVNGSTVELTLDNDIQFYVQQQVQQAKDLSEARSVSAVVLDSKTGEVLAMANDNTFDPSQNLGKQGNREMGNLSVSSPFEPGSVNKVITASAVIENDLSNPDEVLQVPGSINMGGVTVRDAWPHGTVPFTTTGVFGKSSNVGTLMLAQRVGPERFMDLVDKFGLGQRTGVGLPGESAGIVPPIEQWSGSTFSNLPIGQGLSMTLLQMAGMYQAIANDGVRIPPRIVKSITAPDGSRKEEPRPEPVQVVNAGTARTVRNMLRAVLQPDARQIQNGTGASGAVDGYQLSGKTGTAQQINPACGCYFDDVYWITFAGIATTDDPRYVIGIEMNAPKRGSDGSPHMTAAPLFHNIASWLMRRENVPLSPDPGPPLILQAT
Protocol: (§3) Each purified protein (2–4 µM) was incubated with or without β-lactams or BLIs at a molar ratio of 1:50 at room temperature for 2 h. Following incubation, SYPRO Orange dye (10× concentration; Fisher Scientific) was added. The samples were then brought to a final volume of 30 µL with PBS buffer and subjected to thermal cycling in a qPCR machine (Bio-Rad), with the temperature increasing from 25°C to 95°C at a rate of 1°C/min. Fluorescence changes were monitored with an excitation wavelength of 492 nm. The experiments were conducted at least in duplicate, and the melting temperature (Tm) was determined for each sample. The Tm values were then compared to those of the protein in the absence of β-lactams or BLIs to ascertain the change in melting temperature (ΔTm).

[4] = target: T2, DDC (Mycobacteroides abscessus, UniProt B1MDJ1); test: as above; format: binding; conditions: 2 h; read-out: ΔTm DDC (Tm = 35.5°C)
T2 sequence (B1MDJ1 entry or part of it): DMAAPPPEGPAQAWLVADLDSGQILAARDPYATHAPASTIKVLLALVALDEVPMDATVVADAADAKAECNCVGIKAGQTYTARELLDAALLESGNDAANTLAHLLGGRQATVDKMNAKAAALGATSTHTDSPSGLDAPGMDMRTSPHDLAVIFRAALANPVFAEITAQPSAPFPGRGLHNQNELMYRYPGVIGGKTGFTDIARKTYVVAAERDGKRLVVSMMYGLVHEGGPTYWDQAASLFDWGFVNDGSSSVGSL
Protocol: as §3

[5] = target: LDT2 (Mycobacterium abscessus, UniProt B1MMQ4); test: Steady-state kinetics with nitrocefin (Ki,app); format: biochemical; conditions: for Ki: Ki,app LDT2, nitrocefin at 5 × Km; for Ratio of fCss,avg to Ki,app, LDT2: in parentheses in Table 3
Chain of LDT2 (B1MMQ4 entry or part of it): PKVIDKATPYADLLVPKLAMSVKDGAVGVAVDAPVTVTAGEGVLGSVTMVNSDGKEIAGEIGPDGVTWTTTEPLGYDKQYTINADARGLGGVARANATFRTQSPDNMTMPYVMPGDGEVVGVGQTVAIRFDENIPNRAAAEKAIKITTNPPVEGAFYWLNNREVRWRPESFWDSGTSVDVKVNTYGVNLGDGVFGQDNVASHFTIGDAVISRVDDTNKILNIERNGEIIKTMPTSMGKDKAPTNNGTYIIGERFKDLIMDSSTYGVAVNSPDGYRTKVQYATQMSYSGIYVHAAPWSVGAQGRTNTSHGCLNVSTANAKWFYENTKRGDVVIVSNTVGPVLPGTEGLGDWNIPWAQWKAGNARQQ
Protocol: (§4) Steady-state kinetic studies were conducted using purified LDTs and PBPs (LDT1-5, PBP B, PBP-lipo, and DDC) as previously described ([20]). The assays were performed using a BioTek Synergy2 multimode reader in conjunction with Gen5 analysis software. Increasing concentrations of NCF (Δε482 = 17,400 M^⁻¹ cm^⁻¹) were used, while fixed concentrations of the LDTs and PBPs were monitored for changes in absorbance at 482 nm over a time period of 0 to 10 min. To determine reaction velocities, a 0.25 cm path length was employed. The steady-state kinetic parameters (Vmax, kcat, and Km) were obtained by fitting the data to the Henri-Michaelis-Menten equation using a nonlinear least-squares fit in Origin 8.1 software (OriginLab, Northampton, MA). The reaction rate (v) at a given substrate concentration ([S]) was calculated according to the following equations: […]
(§5) To determine the apparent inhibition constants (Ki,app) for β-lactams and BLIs, the following experimental condition was employed: NCF as a substrate at a concentration of 5 × Km, LDT/ PBP enzymes with fixed concentration, and β-lactams and BLIs with various concentrations. Changes in absorbance at 482 nm were measured over a period of 0–30 min for each concentration of β-lactams and BLIs. Data were linearized using a Dixon plot, plotting the inverse changes in absorbance (1/ΔA) against the concentrations of β-lactams and BLIs. The observed Ki,app was determined directly from the Dixon plot, and these values were corrected for substrate concentration and affinity for the LDT using the following equation:
(§6) Ki,app=observed Ki,app/1+[NCF]/Km NCF

[6] = target: T3, LDT4 (Mycobacterium abscessus, UniProt B1MKW1); test: Steady-state kinetics with nitrocefin (Ki,app); format: biochemical; conditions: in parentheses in Table 3
T3 sequence (B1MKW1 entry or part of it): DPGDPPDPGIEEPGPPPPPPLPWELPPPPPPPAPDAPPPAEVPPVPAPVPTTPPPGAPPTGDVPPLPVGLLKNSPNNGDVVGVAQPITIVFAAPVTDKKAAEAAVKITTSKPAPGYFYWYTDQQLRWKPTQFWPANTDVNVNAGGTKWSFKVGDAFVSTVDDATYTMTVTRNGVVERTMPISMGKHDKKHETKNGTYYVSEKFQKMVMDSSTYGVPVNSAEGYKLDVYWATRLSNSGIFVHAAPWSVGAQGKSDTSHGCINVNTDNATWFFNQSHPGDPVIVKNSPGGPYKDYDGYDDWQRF
Protocol: as §4, §5, §6

[7] = target: T1, LDT1; test: Steady-state kinetics with nitrocefin (Ki,app); format: biochemical; conditions: for Ki: Ki,app LDT1, nitrocefin at 5 × Km; for Ratio of fCss,avg to Ki,app, LDT1: in parentheses in Table 3
Protocol: as §4, §5, §6

[8] = target: T3, LDT4; test: Mass spectrometry of covalent adduct formation; format: binding; conditions: protein:drug 1:20, 2 h; mass accuracy ±5 Da; (−) = no change
Protocol: Truncated sequences of LDT1-5, DDC, PBP B, and PBP-lipo (Δ1–41) were generated by Celtek Biosciences and cloned into the pET28(a) + vector with a tobacco etch virus (TEV) protease cleavage site before the start codon. Clones were transformed into Escherichia coli BL21 (DE3) and grown to an OD600 of 0.6–0.8. Protein expression was induced with 0.25 mM isopropyl β-d-1-thiogalactopyranoside (IPTG) and incubated for 18 h at 18°C. Cell pellets were collected and stored at −20°C overnight, then resuspended in a buffer containing 50 mM Tris (pH 8.0), 400 mM sodium chloride, and 1 mM Tris (2-carboxyethyl) phosphine hydrochloride (TCEP), followed by sonication and centrifugation. The supernatant was purified using a His Prep FF 16/10 column (GE Healthcare) and eluted with 500 mM imidazole. Eluted protein was dialyzed overnight at 4°C in a buffer with 50 mM Tris (pH 8.0), 150 mM sodium chloride, and 0.5 mM TCEP in the presence of His-tagged TEV protease. To remove the His tag, the mixture was passed over the His Prep FF 16/10 column again.
as §2

[9] = target: T2, DDC; test: Mass spectrometry of covalent adduct formation; format: binding; conditions: protein:drug 1:20, 2 h; mass accuracy ±5 Da; (−) = no change
Protocol: as §1, §2

Chain of LDT5 (B1MM58 entry or part of it): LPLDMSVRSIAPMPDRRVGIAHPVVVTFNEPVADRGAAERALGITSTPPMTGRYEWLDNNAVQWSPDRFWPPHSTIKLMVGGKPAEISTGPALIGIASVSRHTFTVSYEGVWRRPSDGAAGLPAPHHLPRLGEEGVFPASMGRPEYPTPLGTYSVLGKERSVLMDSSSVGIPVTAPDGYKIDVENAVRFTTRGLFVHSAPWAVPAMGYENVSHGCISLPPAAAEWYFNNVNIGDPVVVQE

Structure (SMILES) | Observed MW (+ change in mw), LDT5 (28,220) [1] | Observed MW (+ change in mw), LDT1 (23,059) [2] | ΔTm [3] [°C] | ΔTm [4] [°C] | Ki [5] [nM] | Ratio of fCss,avg to Ki,app, LDT2 [5] | Ratio of fCss,avg to Ki,app, LDT4 [6] | Ki [7] [nM] | Ratio of fCss,avg to Ki,app, LDT1 [7] | Observed MW (+ change in mw), LDT4 (32,567) [8] | Observed MW (+ change in mw), DDC (26,788) [9]
CC1(C)S[C@@H]2[C@H](NC(=O)[C@H](N)c3ccc(O)cc3)C(=O)N2[C@H]1C(=O)O [Amoxicillin, amoxicillin] | 28,220 (−) Da | 28,220 (−) Da |  |  |  |  |  |  |  |  | 
NC(=O)[C@@H]1CC[C@@H]2CN1C(=O)N2OS(=O)(=O)O [Avibactam, avibactam] | 28,220 (−) Da | 23,325 (+265) Da | -0.2 | 4.2 | 1700 | 11 | < 0.02 | 26400 | 0.7 |  | 
CO/N=C(\C(=O)N[C@@H]1C(=O)N2C(C(=O)O)=C(COC(N)=O)CS[C@H]12)c1ccco1 [Cefuroxime, cefuroxime] |  | 23,059 (−) Da |  |  | 1180 | 24 |  |  |  | 32,567 (−) Da | 
CC1=C[C@@H]2CN(C(=O)N2OS(=O)(=O)O)[C@@H]1C(N)=O [Durlobactam, durlobactam] | 28,496 (+276) Da | 23,336 (+277) Da | -0.4 | 0.4 |  |  | 6 | 418000 | 0.1 | 32,841 (+276) Da | 27,066 (+276) Da
C[C@@H](O)[C@H]1C(=O)N2C(C(=O)O)=C(SCCN=CN)C[C@H]12 [Imipenem, imipenem] |  |  |  |  | 6.68 | 6667 | 3 | 6.68 | 5714 |  | 
C[C@@H](O)[C@H]1C(=O)N2C(C(=O)O)=C(S[C@H]3CC[S@@+]([O-])C3)S[C@H]12 [Sulopenem, sulopenem] | 28,306 (+86) Da |  | 1 | 10.4 | 200 | 29 | 1.1 |  |  | 32,652 (+86) Da | 27,138 (+349) Da
C[C@@H](O)[C@H]1C(=O)N2C(C(=O)O)=C(SC3CN(C4=NCCS4)C3)[C@H](C)[C@H]12 [Tebipenem, tebipenem] | 28,220 (−) Da | 23,443 (+384) Da |  |  | 26.1 | 170 | 2.4 | 4950 | 0.9 | 32,951 (+384) Da | 27,173 (+385) Da
